From patent US20140155397A1, “EMT SIGNATURES AND PREDICTIVE MARKERS AND METHOD OF USING THE SAME” (Board of Regents, priority 2011, published 2014)
Read-outs that look alike come from different tables or passages of the source.

Tests used:
[1] = tested on: H460; test: Proliferation, CellTiter-Glo Luminescent Cell Viability; type: cell-based; conditions: Homo sapiens, NCI-H460, single agent
Excerpt: (§1) Average values were used for analysis as described. […] Chou T. C., et al., Quantitative Analysis of Dose-Effect Relationships: The Combined Effects of Multiple Drugs or Enzyme Inhibitors. Adv Enzyme Regul.

[2] = tested on: H1299; test: as above; type: cell-based; conditions: Homo sapiens, NCI-H1299, single agent
Excerpt: as §1

[3] = tested on: Calu-1; test: as above; type: cell-based; conditions: Homo sapiens, single agent
Excerpt: as §1

[4] = tested on: H2882; test: as above; type: cell-based; conditions: NCI-H2882, single agent
Excerpt: as §1

[5] = tested on: A549; test: as above; type: cell-based; conditions: Homo sapiens, single agent
Excerpt: as §1

[6] = tested on: H157; test: as above; type: cell-based; conditions: Homo sapiens, NCI-H157, single agent
Excerpt: as §1

[7] = tested on: NSCLC cell lines; test: Drug sensitivity (growth inhibition, MTS assay) of epithelial versus mesenchymal NSCLC cell lines; type: cell-based
Excerpt: as §1
The EMT signature was derived in 54 DNA fingerprinted NSCLC cell lines profiled on Affymetrix U133A, B, and Plus2.0 arrays and tested on the Illumina WGv2 and WGv3 platforms and in an independent set of head and neck cancer lines (HNC). E-cadherin and other protein levels were quantified by reverse phase protein array and correlated with the first principal component of the EMT signature. IC50s were determined for NSCLC cell lines by MTS assay. Response to erlotinib was evaluated in patients treated in the BATTLE clinical trial using eight-week disease […] and progression free survival.

[8] = tested on: NSCLC patients; test: BATTLE clinical trial, 8-week disease control and progression-free survival; type: in vivo, human
Excerpt: BATTLE (Biomarker-integrated Approaches of Targeted Therapy for Lung Cancer Elimination) was a randomized, biomarker-based clinical trial for patients with recurrent or metastatic NSCLC in the second-line setting (Trial registration ID: NCT00409968). Kim E. S. H. R., The BATTLE Trial: Personalizing Therapy for Lung Cancer, Cancer Discovery 1:43-51 (2011). mRNA from tumors obtained via core-needle biopsy at enrollment were profiled on Human Gene 1.0 ST array, Affymetrix. Array results were deposited in the GEO repository (GSE33072).
We used pretreatment gene expression profiles (Affymetrix […]) from 101 chemo-refractory patients in our Biomarkers-Integrated Approaches of Targeted Therapy for Lung Cancer Elimination (BATTLE) treated with E, E+bexarotene (EB), sorafenib (S), or vandetanib (V). 24 cases of with EGFR & KRAS tumors treated with E or EB were compared to train the signature (two-sided t-test), using the primary end-point of the trial[8-week disease control (8 with DC)]. Principal component (PC) analysis and a logistic regression model were used to develop the signature. Gene expression profiles from 108 NSCLC cell lines (Illumina), with available E IC50 (N=94) and DNA methylation profiling (N=66, Illumina), were used for in vitro studies.

[9] = tested on: Cells expressing high levels of Axl; test: Proliferation of six mesenchymal cell lines expressing high levels of Axl (summary); type: cell-based; conditions: single agent
Excerpt: as §1

## C#Cc1cccc(Nc2ncnc3cc(OCCOC)c(OCCOC)cc23)c1 [Erlotinib, erlotinib]
[1]
  IC50: > 100 µM
[2]
  IC50: > 100 µM
[3]
  IC50: > 100 µM
[4]
  IC50: > 100 µM
[5]
  IC50: 13.5 µM
[6]
  IC50: 48.5 µM
[7]; SGI-7079 versus erlotinib, p<0.001 by Wilcoxon test
  Sensitivity of mesenchymal cells: uniformly resistant
[7]; all NSCLC cell lines
  Fold higher mean IC50 in mesenchymal versus epithelial cell lines: 3.7 fold
[7]; subset with wild-type EGFR and wild-type KRAS
  Fold higher mean IC50 in mesenchymal versus epithelial cell lines: 2 fold
[8]; 5-gene signature-negative group
  8-week DC rate: 0%
[8]; 5-gene signature-positive group
  8-week DC rate: 83%
[8]; signature-negative group
  Median PFS: 7.2 weeks
[8]; signature-positive group
  Median PFS: 12.5 weeks
[8]; signature-positive versus signature-negative group, 95% CI 0.03-0.46
  Progression-free survival hazard ratio: 0.12
[8]; wildtype EGFR and KRAS patients with mesenchymal signatures
  Patients with 8-week disease control (DC): 1/5
[9]; read-out: IC50 range across cell lines
  IC50: ≥ 13.5 µM
[9]; read-out: Mean IC50 across cell lines
  IC50: 77 µM

## CS(=O)(=O)N1CCN(Cc2cc3nc(-c4cccc5[nH]ncc45)nc(N4CCOCC4)c3s2)CC1 [GDC0941]
[7]; all NSCLC cell lines
  Fold higher mean IC50 in mesenchymal versus epithelial cell lines: 1.9 fold

## CNC(=O)c1cc(Oc2ccc(NC(=O)Nc3ccc(Cl)c(C(F)(F)F)c3)cc2)ccn1 [sorafenib]
[7]; all NSCLC cell lines
  Fold higher mean IC50 in mesenchymal versus epithelial cell lines: not more resistant

## NC1(c2ccc(-c3nc4ccn5c(=O)[nH]nc5c4cc3-c3ccccc3)cc2)CCC1 [MK2206]
[7]; all NSCLC cell lines
  Fold higher mean IC50 in mesenchymal versus epithelial cell lines: 1.5 fold

## Nc1ncnc2c1nc(N)n2[C@@H]1O[C@H](CO)[C@@H](O)[C@H]1O [8-amino-adenosine]
[7]; all NSCLC cell lines
  Fold higher mean IC50 in mesenchymal versus epithelial cell lines: 1.7 fold
